Results reported in patent publication US5594022A, “Tachykinin antagonists” (Warner-Lambert Company, priority 1994, dated 1997).
Structures can show the parent of a compound that is named as a salt. Where two headings read alike, the source gives them in different places.

Legend:
NK1 receptor [1] = molecular target: T1, NK1 receptor (Cavia porcellus, UniProt P30547); assay: In vitro NK1 receptor binding ([125I] Bolton Hunter Substance-P, guinea pig cerebral cortex membranes); details: [125I-BH]Substance-P 0.1 nM
T1 construct: guinea pig cerebral cortex membranes; from tissue; host or cells: guinea pig cerebral cortex membranes
T1 sequence (P30547 whole entry): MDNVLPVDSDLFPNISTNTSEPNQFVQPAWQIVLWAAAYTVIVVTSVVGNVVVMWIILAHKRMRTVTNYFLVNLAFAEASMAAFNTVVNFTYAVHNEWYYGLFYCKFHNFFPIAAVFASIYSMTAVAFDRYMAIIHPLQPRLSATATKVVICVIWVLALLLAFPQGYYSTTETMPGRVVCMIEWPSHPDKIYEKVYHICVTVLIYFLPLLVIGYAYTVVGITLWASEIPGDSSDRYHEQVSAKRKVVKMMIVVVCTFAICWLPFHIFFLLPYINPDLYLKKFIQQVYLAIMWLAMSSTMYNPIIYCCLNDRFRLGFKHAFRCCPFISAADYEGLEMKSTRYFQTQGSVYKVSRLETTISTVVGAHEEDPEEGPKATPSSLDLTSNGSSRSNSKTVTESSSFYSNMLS
Procedure: The compounds of the invention were also evaluated in three tachykinin binding assays.

NK1 receptor [2] = molecular target: T1, NK1 receptor; assay: Guinea pig plasma extravasation (antagonism of SPOMe-induced plasma protein extravasation in the bladder); format: in vivo; details: read-out: ID50, Guinea Pig Plasma Extravasation
[3] = molecular target: T2, NK1 receptor (Guinea Pig Trachea) (Cavia porcellus, UniProt P30547); assay: NK1 antagonist activity, guinea pig trachea; details: read-out: NK1 Antagonist Activity pkB/pA2, Guinea Pig Trachea (converted)
T2 construct: Trachea; from tissue; host or cells: guinea pig trachea
T2 sequence (P30547 whole entry): as above

[4] = molecular target: T3, NK1 receptor (Guinea Pig Ileum) (Cavia porcellus, UniProt P30547); assay: NK1 antagonist activity, guinea pig ileum; details: read-out: NK1 Antagonist Activity pkB/pA2, Guinea Pig Ileum (converted)
T3 construct: Ileum; from tissue; host or cells: guinea pig ileum
T3 sequence (P30547 whole entry): as above

[5] = read-out: Binding IC50, In Vitro NK1 Receptor Binding
[6] = Binding IC50, In Vitro NK1 Receptor Binding
[7] = guinea pig bladder, IV, SPOMe-induced

| SMILES | IC50 (NK1 receptor [1]; [5]) | other results |
| --- | --- | --- |
| CC(NC(=O)[C@@](C)(Cc1c[nH]c2ccccc12)NC(=O)OCc1ccccc1)c1cc(C(F)(F)F)cc(C(F)(F)F)c1 (mixture of isomers) [Example 39, Phenylmethyl (R,RS)-[2-[[1-[3,5-bis(trifluoromethyl) -phenyl]ethyl]amino]-1-(1H-indol-3-ylmethyl)-1-methyl-2-oxoethyl]carbamate] | 10000 nM | – |
| C[C@H](NC(=O)[C@@](C)(Cc1c[nH]c2ccccc12)NC(=O)OCc1ccco1)c1ccccc1 (relative stereo) [Example 49, 2-Furanylmethyl [R,(R*,S*)]-[1-(1H-indol-3-ylmethyl) -1-methyl-2-oxo-2-[(1-phenylethyl)amino]ethyl]carbamate] | 120 nM | – |
| C[C@H](NC(=O)[C@](C)(Cc1c[nH]c2ccccc12)NC(=O)OCc1ccccc1)c1ccccc1 [Example 16] | – | IC50 (NK1 receptor [1]; [6]): 702 nM |
| Cc1ccc(COC(=O)N[C@](C)(Cc2c[nH]c3ccccc23)C(=O)N[C@@H](C)c2ccccc2)cc1 [Example 22] | – | ED50 (NK1 receptor [2]; guinea pig, iv): 0.64 mg/kg; Kb [3]: 100 nM; IC50 (NK1 receptor [1]; [6]): 17 nM; Kb [4]: 15.8 nM |
| CN(C(=O)OCc1ccc(Cl)cc1)[C@@H](Cc1c[nH]c2ccccc12)C(=O)NCc1ccccc1 [Example 29] | 487 nM | – |
| O=C(N[C@@H](Cc1c[nH]c2ccccc12)C(=O)OCc1cc(C(F)(F)F)cc(C(F)(F)F)c1)OCc1ccccc1 [Example 35, Methyl N-[(phenylmethoxy)carbonyl]-, [3,5-bis(trifluoromethyl)phenyl]-L-tryptophan] | 233 nM | – |
| CC(NC(=O)C(C)(Cc1c[nH]c2ccccc12)NC(=O)OCc1ccccc1)C1CCCCC1 (stereo not drawn) [Example 38, Phenylmethyl [R-(R*,R*)]-(2-[(1-cyclohexyethyl)amino]-1-(1H-indol-3-ylmethyl)-1-methyl-2-oxoethyl]carbamate] | 100 nM | – |
| COc1ccc(C(C)NC(=O)[C@@](C)(Cc2c[nH]c3ccccc23)NC(=O)OCc2ccccc2)cc1 (stereo partly drawn) [Example 40, Phenylmethyl (R,RS)-[1-(1H, indole-3-ylmethyl)-2-[[1-(4-methoxyphenyl)ethyl]amino]-1-methyl-2-oxoethyl]carbamate] | 210 nM | – |
| C[C@H](NC(=O)[C@@](C)(Cc1c[nH]c2ccccc12)NC(=O)OCc1cccs1)c1ccccc1 [Example 43, 2-Thienylmethyl [R-(R*,S*)]-[1-(1H-indol-3-ylmethyl) -1-methyl-2-oxo-[(1-phenylethyl)amino]ethyl]carbamate] | 100 nM | – |
| C[C@H](NC(=O)[C@@](C)(Cc1c[nH]c2ccccc12)NC(=O)OC1CCc2ccccc21)c1ccccc1 (stereo partly drawn) [Example 44, 2,3-Dihydro-1H-inden-3-yl [R-(R*,S*)]-[1(1H-indol-3-ylmethyl)-1-methyl-2-oxo-2-[(phenylethyl)amino]ethyl]carbamate] | 110 nM | – |
| C[C@H](NC(=O)[C@@](C)(Cc1c[nH]c2ccccc12)NC(=O)OC1Cc2ccccc2C1)c1ccccc1 [Example 46, 2,3-Dihydro-1H-inden-2-yl [1-(1H-indol-3-ylmethyl) -1-methyl-2-oxo-2-[(1-phenylethyl)amino]ethyl]carbamate] | 110 nM | – |
| C[C@H](NC(=O)[C@@](C)(Cc1c[nH]c2ccccc12)NC(=O)OCc1ccccc1F)c1ccccc1 [Example 47, (2-Fluorophenyl) methyl [R-(R*,S*)]-[1-(1H-insol-3-ylmethyl)-1-methyl-2-oxo-[1-phenylethyl)amino]ethyl]carbamate] | – | ED50 (NK1 receptor [2]; guinea pig, iv): 0.13 mg/kg; Kb [3]: 50.1 nM; IC50 (NK1 receptor [1]; [6]): 10 nM; Kb [4]: 3.98 nM |
| C[C@H](NC(=O)[C@@](C)(Cc1c[nH]c2ccccc12)NC(=O)OCc1cccc(F)c1F)c1ccccc1 [Example 52, (2,3-Difluorophenyl) methyl [R-(R*,S*)]-[(1H-indol-3-methyl)-1-methyl-2-oxo-[(1-phenylethyl)amino]ethyl]carbamate] | 49 nM | – |
| C[C@H](NC(=O)[C@@](C)(Cc1c[nH]c2ccccc12)NC(=O)OCc1ccc(F)cc1F)c1ccccc1 [Example 53, (2,4-Difluorophenyl) methyl [R-(R*,S*)]-[1-(1H-indol-3-ylmethyl)-1-methyl-2-oxo-2-[(1-phenylethyl)amino]ethyl]carbamate] | – | ED50 (NK1 receptor [2]; guinea pig, iv): 0.071 mg/kg; Kb [3]: 7.94 nM; IC50 (NK1 receptor [1]; [6]): 39 nM; Kb [4]: 2.51 nM |
| C[C@H](NC(=O)[C@@](C)(Cc1c[nH]c2ccccc12)NC(=O)OCc1cc2ccccc2o1)c1ccncc1 [Example 66, Carbamic acid, [1-(1H-indol-3-ylmethyl)-1-methyl-2-oxo-2-[[1-(4-pyridinyl)ethyl]amino]ethyl]-, 2-benzofuranylmethyl ester, monohydrochloride, [R-(R*,S*)]] | – | ED50 (NK1 receptor [2]; [7]): 2.8 mg/kg |
| CN(Cc1ccccc1)C(=O)[C@H](Cc1c[nH]c2ccccc12)NC(=O)OCc1cc2ccccc2o1 [Example 67, Carbamic acid, [1-(1H-indol-3-ylmethyl)-2-[methyl (phenylmethyl)amino]-2-oxoethyl]-, 2-benzofuranylmethyl ester, (S)--] | – | ED50 (NK1 receptor [2]; [7]): 0.91 mg/kg; Kb [4]: 12.6 nM |

Continued, in another order:

| IC50 (NK1 receptor [1]; [5]) | SMILES | other results |
| --- | --- | --- |
| 70 nM | Cc1ccc(C(C)NC(=O)[C@@](C)(Cc2c[nH]c3ccccc23)NC(=O)OCc2ccccc2)cc1 (single isomer, unassigned) [Example 36, Phenylmethyl [1-(1H-indol-3-ylmethyl)-1-methyl-2-[[1-(4-methylphenyl)ethyl]amino]-2-oxoethyl]carbamate] | – |
| 290 nM | Cc1ccc(C(C)NC(=O)[C@@](C)(Cc2c[nH]c3ccccc23)NC(=O)OCc2ccccc2)cc1 (single isomer, unassigned) [Example 37, Phenylmethyl [1-(1H-indol-3-ylmethyl)-1-methyl-2-[[1-(4-methylphenyl)ethyl]amino]-2-oxoethyl]carbamate] | – |
| 341 nM | CN(Cc1ccccc1)C(=O)C(Cc1c[nH]c2ccccc12)NC(=O)OCc1ccccc1 (stereo not shown) [Example 1] | – |
| 218 nM | CN(Cc1ccccc1)C(=O)[C@H](Cc1c[nH]c2ccccc12)NC(=O)OCc1ccccc1 [Example 3] | – |
| 198 nM | CC(NC(=O)C(Cc1c[nH]c2ccccc12)NC(=O)OCc1ccccc1)c1ccccc1 (stereo not shown) [Example 4] | – |
| 75 nM | C[C@H](NC(=O)[C@@H](Cc1c[nH]c2ccccc12)NC(=O)OCc1ccccc1)c1ccccc1 [Example 6] | – |
| 306 nM | C[C@H](NC(=O)[C@H](Cc1c[nH]c2ccccc12)NC(=O)OCc1ccccc1)c1ccccc1 [Example 7] | – |
| 168 nM | CN(C(=O)OCc1ccccc1)[C@@H](Cc1c[nH]c2ccccc12)C(=O)NCc1ccccc1 [Example 23] | – |
| 185 nM | C[C@H](NC(=O)[C@H](Cc1c[nH]c2ccccc12)N(C)C(=O)OCc1ccccc1)c1ccccc1 [Example 24] | – |
| 306 nM | C[C@@H](NC(=O)[C@H](Cc1c[nH]c2ccccc12)N(C)C(=O)OCc1ccccc1)c1ccccc1 [Example 27] | – |
| > 10000 nM | C[C@H](NC(=O)[C@@](C)(Cc1c[nH]c2ccccc12)NC(=O)OCc1ccncc1)c1ccccc1 [Example 41] | – |
| 140 nM | C[C@H](NC(=O)[C@@](C)(Cc1c[nH]c2ccccc12)NC(=O)OCc1ccsc1)c1ccccc1 [Example 42, 3-Thienylmethyl [R-(R*,S*)]-[(1H-indol-3-ylmethyl) -1-methyl-2-oxo-2-[(1-phenylethyl)amino]ethyl]carbamate] | – |
| 230 nM | C[C@H](NC(=O)[C@@](C)(Cc1c[nH]c2ccccc12)NC(=O)OCc1ccoc1)c1ccccc1 [Example 48, 3- Furanylmethyl [R-(R*,S*)]-[1-(1H-indol-3-ylmethyl) -1-methyl-2-oxo-2-[(1-phenylethyl)amino]ethyl]carbamate] | – |
| 120 nM | C[C@H](NC(=O)[C@@](C)(Cc1c[nH]c2ccccc12)NC(=O)OCc1cccc(F)c1)c1ccccc1 [Example 50, (3-Fluorophenyl) methyl [R-(R*,S*)]-[1-(1H-indol-3-ylmethyl)-1-methyl-2-oxo-2-[(1-phenylethyl)amino]ethyl]carbamate] | – |
| 230 nM | C[C@H](NC(=O)[C@@](C)(Cc1c[nH]c2ccccc12)NC(=O)OCc1ccc(F)cc1)c1ccccc1 [Example 51, (4-Fluorophenyl) methyl [R-(R*,S*)]-[1-(1H-indol-3-ylmethyl)-1-methyl-2-oxo-2-[(1-phenylethyl)amino]ethyl]carbamate] | – |
| > 1000 nM | C[C@H](NC(=O)C(Cc1n[nH]c2ccccc12)NC(=O)OCc1ccccc1)c1ccccc1 (stereo partly drawn) [Example 55, Phenylmethyl [R-(R*,S*)]and [S-(R*,R*)]-[1-(1H -indazol-3-ylmethyl-)-2-oxo-2-[(1-phenylethyl)amino]ethyl]carbamate] | – |
| 3200 nM | C[C@H](NC(=O)C(Cc1c[nH]c2ccc(F)cc12)NC(=O)OCc1ccccc1)c1ccccc1 (stereo partly drawn) [Example 56, Phenylmethyl [R-(R*,S*)]and [S-(R*,R*)]-[1-[(5-fluoro-1H-indol-3-yl)methyl]-2-oxo-2-[(1-phenylethyl)amino]ethyl]carbamate] | – |
| 3400 nM | CC(NC(=O)C(Cc1cn(C)c2ccccc12)NC(=O)OCc1ccccc1)c1ccccc1 (stereo not shown) [Example 57, Phenylmethyl [1-(1-methyl-1H-indol-3-ylmethyl]-2-pxp-2-[(1-phenylethyl)amino]ethyl]carbamate] | – |
| 1700 nM | C[C@H](NC(=O)[C@@H](Cc1ccc2ccccc2c1)NC(=O)OCc1ccccc1)c1ccccc1 [Example 58] | – |
| > 1000 nM | C[C@H](NC(=O)C(C)(Cc1csc2ccccc12)NC(=O)OCc1ccccc1)c1ccccc1 (stereo partly shown) [Example 60, Phenylmethyl [1-(benzo[b]thien-3-ylmethyl)-1-methyl-2-oxo-2-[(1-phenylethyl)amino]ethyl]carbamate] | – |
